From patent publication US8722670B2, “Selective NR2B antagonists” (Bristol-Myers Squibb Company, priority 2011, dated 2014) come the findings set out here.

Read-outs that look alike come from different tables or passages of the source.

The target in the assay is T1, hNR2B (Homo sapiens, UniProt Q05586+Q13224).
T1 construct: expressed in transfected cells; host or cells: Xenopus laevis oocytes, cRNA-injected
As to the kind of experiment: Electrophysiology NMDA receptor experiments: two electrode voltage-clamp in Xenopus laevis oocytes, hNR2B IC50. The conditions noted are these: 50 μM glutamate, 30 μM glycine. In kind it is cell-based. In general terms: Two-electrode voltage clamp holds a large cell at a set potential and records current.

Where [1] appears, read: hNR2B activity class, read-out: Activity.
The mark [2] stands for this setting: voltage clamp -40 mV, read-out: hNR2B IC50.

T1 sequence (Q13224 27-1484, other chains not shown): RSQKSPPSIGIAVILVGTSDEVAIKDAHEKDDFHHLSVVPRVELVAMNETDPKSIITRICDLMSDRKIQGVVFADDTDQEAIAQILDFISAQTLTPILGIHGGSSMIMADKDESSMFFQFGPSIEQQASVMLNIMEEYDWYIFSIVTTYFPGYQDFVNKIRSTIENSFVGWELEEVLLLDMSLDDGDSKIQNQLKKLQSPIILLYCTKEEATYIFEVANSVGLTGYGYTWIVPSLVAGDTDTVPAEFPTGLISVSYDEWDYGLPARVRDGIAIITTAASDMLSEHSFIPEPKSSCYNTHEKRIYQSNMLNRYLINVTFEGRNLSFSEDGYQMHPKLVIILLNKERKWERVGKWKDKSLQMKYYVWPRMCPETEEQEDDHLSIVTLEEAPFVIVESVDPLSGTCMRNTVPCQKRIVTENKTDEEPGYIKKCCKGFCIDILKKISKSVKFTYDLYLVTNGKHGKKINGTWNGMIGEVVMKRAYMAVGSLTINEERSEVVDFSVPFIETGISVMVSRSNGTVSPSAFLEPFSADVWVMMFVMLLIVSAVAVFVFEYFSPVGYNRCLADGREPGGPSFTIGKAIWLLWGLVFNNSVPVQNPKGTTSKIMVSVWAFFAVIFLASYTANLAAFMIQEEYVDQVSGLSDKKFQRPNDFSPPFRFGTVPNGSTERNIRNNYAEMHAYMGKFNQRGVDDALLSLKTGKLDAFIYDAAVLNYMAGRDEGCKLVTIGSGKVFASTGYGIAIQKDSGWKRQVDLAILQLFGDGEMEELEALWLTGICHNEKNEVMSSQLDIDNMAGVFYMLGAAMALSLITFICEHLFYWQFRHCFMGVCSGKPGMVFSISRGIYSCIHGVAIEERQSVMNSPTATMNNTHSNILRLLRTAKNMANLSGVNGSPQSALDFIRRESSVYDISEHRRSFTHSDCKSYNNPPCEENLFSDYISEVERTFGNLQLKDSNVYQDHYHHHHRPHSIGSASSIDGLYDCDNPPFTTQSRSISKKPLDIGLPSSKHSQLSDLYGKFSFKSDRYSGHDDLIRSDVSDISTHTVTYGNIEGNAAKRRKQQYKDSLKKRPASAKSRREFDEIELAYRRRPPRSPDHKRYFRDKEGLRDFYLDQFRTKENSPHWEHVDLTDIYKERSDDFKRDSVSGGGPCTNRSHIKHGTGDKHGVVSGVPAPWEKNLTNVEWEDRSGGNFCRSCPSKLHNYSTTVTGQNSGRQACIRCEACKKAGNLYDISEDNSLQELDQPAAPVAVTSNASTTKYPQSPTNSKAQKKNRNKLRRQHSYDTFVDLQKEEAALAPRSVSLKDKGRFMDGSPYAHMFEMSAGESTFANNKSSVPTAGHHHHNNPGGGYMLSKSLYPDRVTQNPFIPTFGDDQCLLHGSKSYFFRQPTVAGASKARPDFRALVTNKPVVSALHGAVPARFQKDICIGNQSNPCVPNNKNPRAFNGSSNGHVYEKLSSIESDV
Experimental: Stage V and VI oocytes were surgically removed from the ovaries of large, well-fed and healthy Xenopus laevis anesthetized with 3-amino-benzoic acid ethyl ester (3 gm/l). […] Oocytes were then washed in the same solution supplemented with 1.8 mM CaCl2 and maintained in Barth's solution comprised of (in mM): 88 NaCl, 1 KCl, 2.4 NaHCO3, 10 HEPES, 0.82 MgSO4, 0.33 Ca(NO3)2, and 0.91 CaCl2 and supplemented with 100 μg/ml gentamycin, 10 μg/ml streptomycin, and 10 μg/ml penicillin.
Two electrode voltage-clamp recordings were made 2-7 days post-injection. Oocytes were placed in a dual-track plexiglass recording chamber with a single perfusion line that splits in a Y-configuration to perfuse two oocytes. Dual recordings were made at room temperature (23° C.) using two Warner OC725B two-electrode voltage clamp amplifiers, arranged as recommended by the manufacturer. Glass microelectrodes (1-10 Megaohms) were filled with 300 mM KCl (voltage electrode) or 3 M KCl (current electrode). The bath clamps communicated across silver chloride wires placed into each side of the recording chamber, both of which were assumed to be at a reference potential of 0 mV. Oocytes were perfused with a solution comprised of (in mM) 90 NaCl, 1 KCl, 10 HEPES, 10 EDTA and 0.5 BaCl2; pH 7.4, adjusted by addition of NaOH. Oocytes were recorded under voltage clamp at −40 mV. Final concentrations for glutamate and glycine were 50 μM and 30 μM, respectively. […] Dose response curves consisting of four to eight concentrations were obtained in this manner. The baseline leak current at −40 mV was measured before and after recording, and the full recording linearly corrected for any change in leak current. The level of inhibition by applied experimental compounds was expressed as a percent of the initial glutamate response, and averaged together across oocytes from multiple experiments.
For NMDA receptor subtype selectivity experiments human GluN1/GluN2A, GluN1/GluN2C, and GluN1/GluN2D cRNAs were expressed in Xenopus laevis as described above. Here, 10 μM concentrations of the antagonist was perfused with 50 μM glutamate and 30 μM glycine onto the oocyte for two min and the remaining current in the presence of the antagonist was compared to the maximal current obtained with 50 μM glutamate and 30 μM glycine alone (defined as 100%). When IC50 determinations were made against other NMDA receptor subtypes the protocol as described above was followed.

As for `O=c1ccc2cc(OCc3nnc(NCc4c(Cl)cccc4Cl)o3)ccc2[nH]1` [Example 70], the IC50 under setting [1] was 1 to 10 µM.
Consider `O=c1ccc2cc(OCc3nnc(Nc4ccc(C(F)(F)F)c(Cl)c4)o3)ccc2[nH]1` [Example 73], for which, under setting [1], the IC50 was less than 0.2 µM.
For the molecule `O=c1ccc2cc(OCc3nnc(Nc4ccc(OC(F)(F)F)c(Cl)c4)o3)ccc2[nH]1` [Example 74], under setting [1], the IC50 is less than 0.2 µM.
Consider `O=c1ccc2cc(OCc3nnc(NCc4ccccc4C(F)(F)F)o3)ccc2[nH]1` [Example 75], for which the IC50 under setting [1] lay in the range of 1 to 10 µM.
In the case of `O=c1ccc2cc(OCc3nnc(NCc4ccc(C(F)(F)F)cc4)o3)ccc2[nH]1` [Example 76], the IC50 under setting [1] was less than 0.2 µM.
In the case of `O=c1ccc2cc(OCc3nnc(NCc4cccc(Cl)c4)o3)ccc2[nH]1` [Example 77], the IC50 under setting [1] fell in the range of 0.201 to 1 µM.
As to `CC1(C)Cc2cc(OCc3nnc(Nc4ccc(Cl)c(Cl)c4)o3)ccc2NC1=O` [Example 80], the IC50 under setting [1] lay within 1 to 10 µM.
On to `CC1(C)Cc2cc(OCc3nnc(Nc4ccc(Cl)c(F)c4)o3)ccc2NC1=O` [Example 83], for which the IC50 under setting [1] was in the range of 1 to 10 µM.
On to `CC1(C)Cc2cc(OCc3nnc(NCc4ccc(Cl)c(Cl)c4)o3)ccc2NC1=O` [Example 84], for which, under setting [1], the IC50 is greater than 10 µM.
Still for that read-out and setting: to `O=c1ccc2cc(OCc3nnc(NCc4ccc5c(c4)OCO5)o3)ccc2[nH]1` [Example 85] belongs 1 to 10 µM; to `Cc1cc(CNc2nnc(COc3ccc4[nH]c(=O)ccc4c3)o2)ccc1F` [Example 86], 0.201 to 1 µM.
For `O=c1ccc2cc(OCc3nnc(Nc4ccc(OC(F)F)c(Cl)c4)o3)ccc2[nH]1` [Example 87], the IC50 under setting [1] is less than 0.2 µM.
`O=c1ccc2cc(OCc3nnc(Nc4ccc(Cl)c(OC(F)F)c4)o3)ccc2[nH]1` [Example 88]: the IC50 under setting [1] is less than 0.2 µM.
For `O=c1ccc2cc(OCc3nnc(Nc4cccc(Oc5ccccc5)c4)o3)ccc2[nH]1` [Example 89], the IC50 under setting [1] lay in the range of 0.201 to 1 µM.
In the case of `Cc1cc(Nc2nnc(COc3ccc4[nH]c(=O)ccc4c3)o2)ccc1F` [Example 90], the IC50 under setting [1] lay within 0.201 to 1 µM.
Still for that read-out and setting: to `O=c1ccc2cc(OCc3nnc(Nc4ccc(Oc5ccccc5)cc4)o3)ccc2[nH]1` [Example 91] belongs 1 to 10 µM.
Same read-out and setting: with `Cc1ccc(Nc2nnc(COc3ccc4[nH]c(=O)ccc4c3)o2)cc1Cl` [Example 92] the figure was less than 0.2 µM; with `Cc1cccc(CNc2nnc(COc3ccc4[nH]c(=O)ccc4c3)o2)c1` [Example 94], 0.201 to 1 µM.
Consider `O=c1ccc2cc(OCc3nnc(Nc4ccc(F)c(Cl)c4)o3)ccc2[nH]1` [Example 96], for which the IC50 under setting [1] lay within 0.201 to 1 µM.
On to `O=c1ccc2cc(OCc3nnc(Nc4ccc(F)c(C(F)F)c4)o3)ccc2[nH]1` [Example 99], for which the IC50 under setting [1] fell in the range of 0.201 to 1 µM.
Take `O=c1ccc2cc(OCc3nnc(NCc4ccccc4F)o3)ccc2[nH]1` [Example 100]: the IC50 under setting [1] lay within 1 to 10 µM.
As to `Cc1ccc(Nc2nnc(COc3ccc4[nH]c(=O)ccc4c3)o2)cc1F` [Example 102], the IC50 under setting [1] is less than 0.2 µM.
`COc1ccc(Nc2nnc(COc3ccc4[nH]c(=O)ccc4c3)o2)cc1F` [Example 103]: the IC50 under setting [1] is 0.201 to 1 µM.
For `CC(Oc1ccc2[nH]c(=O)ccc2c1)c1nnc(Nc2ccc(Cl)c(Cl)c2)o1` (stereo not drawn) [Example 106], the IC50 under setting [1] is less than 0.2 µM.
The same measure, in the same setting: to `CC(Oc1ccc2[nH]c(=O)ccc2c1)c1nnc(Nc2ccc(OC(F)F)c(Cl)c2)o1` (stereo not drawn) [Example 108] belongs less than 0.2 µM; to `O=C1Nc2ccc(OCc3nnc(Nc4ccc(Cl)c(Cl)c4)o3)cc2CO1` [Example 111], less than 0.2 µM.
As for `O=c1[nH]c2ccc(OCc3nnc(NCc4ccc(Cl)c(Cl)c4)o3)cc2[nH]1` [Example 112], under setting [1], the IC50 is less than 0.2 µM.
On to `O=c1[nH]c2ccc(OCc3nnc(Nc4ccc(Cl)c(Cl)c4)o3)cc2[nH]1` [Example 113], for which the IC50 under setting [1] is less than 0.2 µM.
Same read-out and setting: with `Oc1ccc(OCc2nnc(NCc3ccc(Cl)c(Cl)c3)o2)cc1` [Example 114] the figure was less than 0.2 µM; with `Oc1ccc(OCc2nnc(Nc3ccc(Cl)c(Cl)c3)o2)cc1` [Example 115], less than 0.2 µM.
`Oc1cccc(OCc2nnc(Nc3ccc(Cl)c(Cl)c3)o2)c1` [Example 116]: the IC50 under setting [1] lay in the range of 1 to 10 µM.
Regarding `Oc1ccc(OCc2nnc(NCc3ccc(Cl)c(Cl)c3)o2)nn1` [Example 117], the IC50 under setting [1] is greater than 10 µM.
`Oc1ccc(OCc2nnc(Nc3ccc(Cl)c(Cl)c3)o2)nn1` [Example 118]: the IC50 under setting [1] is 1 to 10 µM.
The same measure, in the same setting: to `Oc1c(F)cc(OCc2nnc(Nc3ccc(Cl)c(Cl)c3)o2)cc1F` [Example 119] belongs 0.201 to 1 µM; to `Clc1ccc(CNc2nnc(COc3ccc4c(c3)CCCN4)o2)cc1Cl` [Example 120], greater than 10 µM; to `O=c1cnc2cc(OCc3nnc(Nc4ccc(Cl)c(Cl)c4)o3)ccc2[nH]1` [Example 123], 1 to 10 µM.
As for `O=c1cnc2cc(OCc3nnc(Nc4ccc(C(F)(F)F)cc4)o3)ccc2[nH]1` [Example 124], the IC50 under setting [1] is 1 to 10 µM.
The same measure, in the same setting: with `O=C1COc2cc(OCc3nnc(Nc4ccc(Cl)c(Cl)c4)o3)ccc2N1` [Example 125] the figure was 0.201 to 1 µM; with `O=C1COc2cc(OCc3nnc(Nc4ccc(OC(F)(F)F)cc4)o3)ccc2N1` [Example 126], 0.201 to 1 µM; with `O=C1COc2cc(OCc3nnc(NCc4ccc(Cl)c(Cl)c4)o3)ccc2N1` [Example 127], 0.201 to 1 µM.
As to `Oc1ccc(CCc2nnc(NCc3ccc(Cl)c(Cl)c3)o2)cc1` [Example 128, 4-(2-(5-(3,4-dichlorobenzylamino)-1,3,4-oxadiazol-2-yl)ethyl)phenol], under setting [2], the IC50 was found to be 0.061 µM.
In the case of `O=C1CCc2cc(CCc3nnc(Nc4ccc(Cl)cc4)o3)ccc2N1` [Example 129], the IC50 under setting [1] is less than 0.2 µM.
On to `O=C1CCc2cc(CCc3nnc(Nc4ccc(C(F)(F)F)cc4)o3)ccc2N1` [Example 130], for which the IC50 under setting [1] is less than 0.2 µM.
Consider `O=C1CCc2cc(CCc3nnc(Nc4ccc(Cl)c(Cl)c4)o3)ccc2N1` [Example 131], for which the IC50 under setting [1] is less than 0.2 µM.
For the molecule `O=C1CCc2cc(CCc3nnc(NCc4ccc(Cl)c(Cl)c4)o3)ccc2N1` [Example 132], the IC50 under setting [1] is less than 0.2 µM.
Consider `O=C1CCc2cc(CCc3nnc(Nc4ccc(OC(F)F)cc4)o3)ccc2N1` [Example 133], for which the IC50 under setting [1] was less than 0.2 µM.
Take `O=C1CCc2cc(CCc3nnc(Nc4ccc(OC(F)(F)F)cc4)o3)ccc2N1` [Example 134]: the IC50 under setting [1] is less than 0.2 µM.
Still for that read-out and setting: with `O=C1CCc2cc(CCc3nnc(Nc4ccc(Cl)c(F)c4)o3)ccc2N1` [Example 135] the figure was less than 0.2 µM; with `O=c1ccc2cc(CCc3nnc(Nc4ccc(Cl)c(Cl)c4)o3)ccc2[nH]1` [Example 136], less than 0.2 µM; with `O=c1ccc2cc(CCc3nnc(Nc4ccc(OC(F)(F)F)c(Cl)c4)o3)ccc2[nH]1` [Example 137], less than 0.2 µM.
Same read-out and setting: with `O=c1ccc2cc(CCc3nnc(Nc4ccc(C(F)(F)F)cc4)o3)ccc2[nH]1` [Example 138] the figure was less than 0.2 µM.
Take `FC(F)Oc1ccc(Nc2nnc(CCc3ccc4[nH]nc(C(F)(F)F)c4c3)o2)cc1Cl` [Example 142]: the IC50 under setting [2] is 4.68 µM.
Consider `FC(F)(F)c1n[nH]c2ccc(CCc3nnc(Nc4ccc(Cl)c(Cl)c4)o3)cc12` [Example 143], for which the IC50 under setting [1] was greater than 10 µM.
Consider `FC(F)(F)c1ccc(Nc2nnc(CCc3ccc4[nH]ncc4c3)o2)cc1` [Example 144], for which, under setting [1], the IC50 is less than 0.2 µM.
For the molecule `Clc1ccc(Nc2nnc(CCCc3ccc4[nH]ncc4c3)o2)cc1Cl` [Example 145], the IC50 under setting [1] fell in the range of 1 to 10 µM.
Consider `Fc1cc(Nc2nnc(CCCc3ccc4[nH]ncc4c3)o2)ccc1Cl` [Example 146], for which the IC50 under setting [2] came out at 0.23 µM.
`Oc1cccc(Cc2nnc(Nc3ccc(Cl)c(Cl)c3)o2)c1` [Example 147]: the IC50 under setting [1] lay within 1 to 10 µM.
On the same count and under the same terms, with `Oc1cccc(Cc2nnc(NCc3ccc(Cl)c(Cl)c3)o2)c1` [Example 148] the figure was greater than 10 µM; with `Oc1ccc(Cc2nnc(Nc3ccc(Cl)c(Cl)c3)o2)cc1` [Example 149], 1 to 10 µM.
For the molecule `Oc1ccc(Cc2nnc(NCc3ccc(Cl)c(Cl)c3)o2)cc1` [Example 150], the IC50 under setting [1] lay in the range of 1 to 10 µM.
As for `Oc1ccc(CCc2nnc(Nc3ccc(Cl)c(Cl)c3)o2)cc1` [Example 151], under setting [1], the IC50 was less than 0.2 µM.
As for `Oc1ccc(CCc2nnc(Nc3ccc(C(F)(F)F)cc3)o2)cc1` [Example 152], under setting [2], the IC50 amounted to 0.048 µM.
Take `Oc1ccc(CCc2nnc(Nc3ccc(OC(F)(F)F)cc3)o2)cc1` [Example 153]: under setting [1], the IC50 is less than 0.2 µM.
Consider `O=c1ccc2cc(C3CC3c3nnc(Nc4ccc(C(F)(F)F)cc4)o3)ccc2[nH]1` (stereo not drawn) [Example 154, 6-(2-(5-((4-(trifluoromethyl)phenyl)amino)-1,3,4-oxadiazol-2-yl)cyclopropyl)quinolin-2(1H)-one], for which the IC50 under setting [2] amounted to 0.0095 µM.
Take `O=c1ccc2cc(C3CC3c3nnc(Nc4ccc(OC(F)F)c(Cl)c4)o3)ccc2[nH]1` (stereo not drawn) [Example 155]: under setting [1], the IC50 was less than 0.2 µM.
As for `O=C1CCc2cc(OCc3nc(Nc4ccc(Cl)c(Cl)c4)no3)ccc2N1` [Example 156, 6-((3-(3,4-dichlorophenylamino)-1,2,4-oxadiazol-5-yl)methoxy)-3,4-dihydroquinolin-2(1H)-one], the IC50 under setting [2] stood at 0.39 µM.
`O=c1ccc2cc(OCc3nc(Nc4ccc(C(F)(F)F)c(F)c4)no3)ccc2[nH]1` [Example 157]: under setting [1], the IC50 is greater than 10 µM.
`O=c1ccc2cc(OCc3nc(Nc4ccc(F)cc4)no3)ccc2[nH]1` [Example 158]: the IC50 under setting [1] is greater than 10 µM.
Regarding `O=c1ccc2cc(OCc3nc(Nc4cccc(Cl)c4)no3)ccc2[nH]1` [Example 161], the IC50 under setting [1] is greater than 10 µM.
Take `O=c1ccc2cc(OCc3nc(Nc4cc(Cl)cc(Cl)c4)no3)ccc2[nH]1` [Example 164]: the IC50 under setting [1] lay in the range of 1 to 10 µM.
Take `Cc1ccc(Nc2noc(COc3ccc4[nH]c(=O)ccc4c3)n2)cc1` [Example 165]: the IC50 under setting [1] fell in the range of 1 to 10 µM.
`COc1ccc(Nc2noc(COc3ccc4[nH]c(=O)ccc4c3)n2)cc1F` [Example 166]: the IC50 under setting [1] is less than 0.2 µM.
On to `COc1ccc(Nc2noc(COc3ccc4[nH]c(=O)ccc4c3)n2)cc1Cl` [Example 167], for which the IC50 under setting [2] came out at 0.3 µM.
Turning to `O=c1ccc2cc(OCc3nc(Nc4ccc(Cl)c(Cl)c4)no3)ccc2[nH]1` [Example 178], the IC50 under setting [1] lay within 0.201 to 1 µM.
Take `O=C1CCc2cc(OCc3nc(Nc4ccc(OC(F)(F)F)cc4)no3)ccc2N1` [Example 179]: the IC50 under setting [1] fell in the range of 0.201 to 1 µM.
